Results taken from patent publication US10130641B2, “Compositions of vitamin D and methods for their use and manufacture” (priority 2015, dated 2018).

Assay: Plasma concentration of vitamin D3 in rats after a single oral dose (absorption / bioavailability study)
Type: in vivo, Wistar rats
Settings: for Cmax / Tmax / AUC: Area Under the plasma conc.-time Curve: rat plasma, 50,000 IU oral; for AUC: Area Under the plasma conc.-time Curve: trapezoid rule; for Mean plasma concentration of vitamin D3: rat, 50,000 IU oral
Protocol: The present study was undertaken to compare the rate of absorption of vitamin D3, from formulated vitamin D3 with tomato seed oil and high-fat meal. The absorption was studied by serial measurements of the plasma concentration of vitamin D3 after ingestion of a pharmacological dose of the vitamin dissolved in the vehicles.
Male Albino Wistar rats were used. Animals were kept under a twelve-hour light/dark cycle. Group I was treated with normal diet and vitamin D3 (50,000 IU). Group II was given Vitamin D3 (50,000 IU) with High-Fat diet. Group III was treated with Vitamin D3 (50,000 IU) formulation in tomato seed oil orally. 10 mL/kg body weight was used for gavage administration. […] Animals were ether anesthetized and blood samples (approximately 0.5 mL) were collected via retro-orbital sinus puncture.
Blood samples were collected in heparinized eppendorf tubes. Tubes were inverted several times to mix and were then placed on ice and centrifuged to separate plasma within 1 h time. After centrifugation, plasma was transferred into storage tubes (0.5 mL), which were stored frozen (approximately −70° C.) until analyzed.
Plasma processing involved liquid-liquid extraction using acetonitrile and methanol (80:20). 100 μL aliquot of plasma was mixed with 1 mL of acetonitrile and methanol. After vortex mixing for 1 min, the sample was centrifuged at 7,000 rpm at 4° C. for 10 min to remove precipitated proteins; the supernatant was transferred to a clean tube and dried under nitrogen at room temperature (approximately 25° C.). After the evaporation was completed, the residue was reconstituted in 100 μL of methanol with 5 min of sonication, added to 400 μL of water, vortex mixed, and centrifuged again. The resulting supernatant was transferred to a sample vial for instrumental analysis.
Chromatography was performed using a Phenomenex C18 […]×4.6 mm, 5 μm column, maintained at a temperature of 35° C. A flow rate of 1 mL/min was used; mobile phase acetonitrile and methanol (80:20); elution gradient program, injection volume 5 μL, detection UV, 280 nm. Total run time was 15 min.
The data was represented in a plasma level-time curve. The area under time curve (AUC) was calculated using Trapezoid rule. The maximum concentration (Cmax) and maximum time (Tmax) were obtained directly from generated data. The maximum plasma concentration (Cmax) and the time to reach Cmax (Tmax) were obtained directly from the plasma concentration-time curve. All values were expressed as mean±standard deviation (SD) except Tmax mentioned as median.

| SMILES | Cmax (high-fat diet) [ng/mL] | Tmax (high-fat diet) [h] | AUC: Area Under the plasma conc.-time Curve (high-fat diet) | Mean plasma concentration of vitamin D3 (high-fat diet, 0 min) [ng/mL] | Mean plasma concentration of vitamin D3 (high-fat diet, 30 min) [ng/mL] | Cmax (normal diet) [ng/mL] | Tmax (normal diet) [h] | AUC: Area Under the plasma conc.-time Curve (normal diet) | Mean plasma concentration of vitamin D3 (normal diet, 0 min) [ng/mL] | Mean plasma concentration of vitamin D3 (normal diet, 30 min) [ng/mL] | Mean plasma concentration of vitamin D3 (normal diet, 1 hrs) [ng/mL] | Mean plasma concentration of vitamin D3 (normal diet, 2 hrs) [ng/mL] | Mean plasma concentration of vitamin D3 (normal diet, 3 hrs) [ng/mL] | Mean plasma concentration of vitamin D3 (normal diet, 4 hrs) [ng/mL] | Mean plasma concentration of vitamin D3 (normal diet, 6 hrs) [ng/mL] | Mean plasma concentration of vitamin D3 (normal diet, 8 hrs) [ng/mL] | Mean plasma concentration of vitamin D3 (normal diet, 12 hrs) [ng/mL] | Mean plasma concentration of vitamin D3 (normal diet, 24 hrs) [ng/mL] | Mean plasma concentration of vitamin D3 (normal diet, 48 hrs) [ng/mL] | Mean plasma concentration of vitamin D3 (normal diet, 72 hrs) [ng/mL] |
| --- | --- | --- | --- | --- | --- | --- | --- | --- | --- | --- | --- | --- | --- | --- | --- | --- | --- | --- | --- | --- |
| C=C1CC[C@H](O)C/C1=C/C=C1\CCC[C@]2(C)[C@@H]([C@H](C)CCCC(C)C)CC[C@@H]12 [Vitamin D3 + High-Fat Diet, cholecalciferol] | 86090 ± 12140 | 12 | 1595 + 600.6 μg · hr/ml | 0 | 0 |  |  |  |  |  |  |  |  |  |  |  |  |  |  |  |
| C=C1CC[C@H](O)C/C1=C/C=C1\CCC[C@]2(C)[C@@H]([C@H](C)CCCC(C)C)CC[C@@H]12 [Vitamin D3 + Normal Diet, cholecalciferol] |  |  |  |  |  | 47030 ± 4150 | 24 | 3478 + 1758 μg · hr/ml | 0 | 0 | 1867 ± 800 | 4310 ± 1530 | 9870 ± 4140 | 12000 ± 4970 | 10740 ± 8060 | 13590 ± 4160 | 16060 ± 3500 | 47030 ± 4150 | 17940 ± 1330 | 1070 ± 350 |
